Test results reported in publication PMC8071435, “Amorphous Solid Dispersion Tablets Overcome Acalabrutinib pH Effect in Dogs” (Pharmaceutics, 2021).
Where two headings read alike, the source gives them in different places. Marks after values point to notes of the source that are not given here.

Experiments:
[1] = Chemical stability: total impurities (total related substances) by RP-HPLC after storage; type: physicochemical; conditions: 40 °C/75% RH/open, perforated seal
Method: The ASD was stored at 40 °C/75% relative humidity (RH) to assess physical and chemical stability under accelerated storage conditions. Initial ASD samples and aged ASDs were analyzed for crystallinity using PXRD, thermal properties using mDSC, changes in morphology or presence of surface crystals using SEM, and chemical degradation by reverse-phase high-performance liquid chromatography (RP-HPLC). The ASD and ASD tablets were stored at ambient and refrigerated conditions to assess the chemical stability at nonaccelerated conditions. Initial and aged ASD samples were analyzed for total related substances using RP-HPLC. See Appendix A.3 for method details.
ASD and ASD tablet samples were analyzed for total related substances using RP-HPLC using a Waters XBridge C8 (150 × 3 mm, 3.5 µm pores) column (Waters Corporation, Milford, MO, USA) at a temperature of 40 °C. Mobile phase was pumped into the column at a flow rate of 0.7 mL/min using a gradient method. 10 mM ammonium acetate was used as mobile phase A and methanol was used as mobile phase B supplied according to the following sequence: 0 min: 20% B, 30 min: 70% B, 40 min: 70% B, 41 min: 20% B, […]. Samples were diluted with 8/2 (v/v) methanol/water and injection volume was 5 µL. The sample tray was held at uncontrolled room temperature. Analysis wavelength was 230 nm and 4 nm bandwidth.
The ASD was stored at 40 °C/75% relative humidity (RH) to assess physical and chemical stability when stored under accelerated conditions. Approximately 100 mg of ASD was placed in a single 4 mL glass vial, with enough glass vials prepared for each storage condition, timepoint and replicate. […] Initial ASD samples and aged ASDs were analyzed for crystallinity using SEM and PXRD, thermal properties using mDSC (in triplicate) and total related substances using RP-HPLC (duplicate analysis).
Additional ASD samples were stored at ambient and refrigerated conditions to assess the chemical stability upon storage at nonaccelerated conditions. […] Initial and aged ASD samples were analyzed for total related substances using RP-HPLC (duplicate analysis). […]

[2] = design: method as in PMID 31306750; conditions: cited from earlier work
[3] = design: method as in PMID 31306750; conditions: cited from earlier work; remark: listed apart in the source
[4] = design: method as in PMID 31306750; conditions: cited from earlier work; remark: listed apart in the source
[5] = test system: CYP3A4; design: method as in PMID 31306750; conditions: humans; cited from earlier work
[6] = design: method as in PMID 31306750; conditions: humans; cited from earlier work

- Total impurities after 4 wk ([1]; 4 wk): 0.70 ± 0.04 area%
- Total impurities after 12 wk ([1]; 12 wk): 0.94 ± 0.05 area%
- Total impurities, initial ([1]; initial (different ASD batch)): 0.59 ± 0.00 area%
Structure (SMILES): CC#CC(=O)N1CCC[C@H]1c1nc(-c2ccc(C(=O)Nc3ccccn3)cc2)c2c(N)nccn12 [acalabrutinib]
- pKas in physiological range ([2]; higher basic pKa): 5.8
- pKas in physiological range ([2]; lower basic pKa): 3.5
- log P [3]: 2.0 ^a
- Crystalline intrinsic solubility [4]: 48 ^a µg/mL
- Fraction metabolized by CYP3A4 in the gut [5]: approximately 50%
- Fraction metabolized by first-pass liver extraction [6]: 50%
